Experiments:
[1] = tested on: mechanical allodynia after spinal nerve ligation; test: L5-L6 spinal nerve ligation (Chung) model, 50% paw withdrawal threshold / % MPE; assay type: in vivo, Sprague-Dawley rat; settings: rat
Experimental: Intragastrical administration by gavage: Compound and vehicle were given via a 15 G Gavage needle at 1 ml/100 g of the rat body weight. L5-L6 Spinal Nerve Ligation (Chung): Male Sprague-Dawley rats (Taconic) were anesthetized with 2% gaseous isofluorane (For induction 3-5% and O2 […], for maintenance 2-3% and O2 […]). Following dorsal skin incision and muscle separation, the posterior interarticular traverse process of L/S1 was exposed and carefully removed with a mircro Rongeur. The L5 and L6 spinal nerves were tightly ligated by a square knot with 6-0 silk thread. The muscles were closed with 4-0 absorbable sutures and the skin was closed with wound clips. […] Animals were pre-tested and non-sensitive rats (50% paw withdrawal threshold above 3 g) were also excluded from compound testing. The results were expressed either as 50% paw withdrawal threshold, or in % maximal possible effect (MPE). MPE was calculated as follows: [formula] Pre-operation cut-off value is 15 grams. CCR-2 Antagonist C was evaluated in a multiple dosing study for 5 days. […] 50% paw withdrawal threshold following multiple dosing (3 mg/kg, PO, b.i.d.) of CCR-2 Antagonist C. Five days post spinal nerve ligation, the animals were tested before and 1 hr after dosing at 7 a.m. each day for 5 days. Data=Mean±SEM, n=10 rats. Efficacy: % MPE. […]

[2] = tested on: CFA-induced weight bearing deficit; test: Rat Complete Freund's Adjuvant (CFA) model, weight bearing; assay type: in vivo, Sprague-Dawley rat
Experimental: Complete Freund's Adjuvant (CFA): Male Sprague-Dawley rats (Charles River) were injected with CFA (150 μl) intraplantar into their left paw. This study included 3 groups: (1) CCR-2 Antagonist C at 3 mg/kg bid started 2 hours before CFA injection, (2) vehicle group and (3) CCR-2 Antagonist C at 10 mg/kg given on day 3 post-CFA (rats received vehicle on day 0-2)(n=6 per group). Rats were dosed for 3.5 days bid. Before the morning dose and two hours after it, weight bearing and paw size were measured. On the final day of the study (day 3 post-CFA) in addition to weight bearing, paw pressure threshold was also evaluated at 2 hr post dose.

[3] = tested on: mechanical allodynia induced by MCP-1; test: Intrathecal MCP-1 injection and co-injection with CCR-2 antagonist, 50% paw withdrawal threshold; assay type: in vivo; settings: rat
Experimental: Intrathecal administration by intrathecal catheter: Using Hamilton syringe to inject each rat: 5 μl compound or vehicle, 1 μl air and 9 μl vehicle. Intrathecal catheterization. After shaving the back of the head and neck, the rats were placed in a stereotaxic headholder with the head flexed forward. A 8-cm saline filled polyethylene tube (PE5) was placed into the subarachnoid space through a small puncture and threaded caudally so that the caudal tip rested on the rostral edge of the lumbar enlargement. The rats were allowed to recover for a minimum of 2-3 days prior to further study. […] Animals with impaired motor function (e.g. hind limb paralysis) were euthanized. Compounds: A CCR-2 antagonist having the formula: [drawing 1085] (CCR-2 Antagonist “A”) was tested in the formalin test and the mouse nerve injury model. A second CCR-2 antagonist: [drawing 1086] (CCR-2 Antagonist “B”) was tested in the formalin test only. Both compounds were diluted in 0.5% methylcellulose and were dosed p.o. at a volume of 0.2 ml per 30 g body-weight. For the formalin test, compounds were administered 60 min before the formalin injection. For the nerve injury model, Compound A was tested 4-5 days after surgery. A third CCR-2 antagonist having the formula: [drawing 1087] […] At Day 0, 1, 3, 4, 7, 10, 11, 15, 18 and 21 post dosing, 50% paw withdrawal threshold was determined.

[4] = tested on: formalin-induced pain behavior; test: Mouse formalin test; assay type: in vivo; settings: for decrease of pain behavior in the formalin test: 60 min before formalin
Experimental: Formalin Test: For 4 days prior to testing, mice were acclimated for 2 hours every day on the test platform. On the day of study, mice were placed for 1 hour on the test platform, and subsequently were administered 10 μl of 2% formalin in the plantar surface of the left paw. The time mice spent either licking or lifting the injected paw was recorded over 2-minute periods at 5-minute intervals for 50 minutes. […] Phase 1 (0-10 min post-injection) is considered to reflect acute pain, whereas phase 2 (10-50 min post-injection) reflects chronic, inflammatory pain. The formalin test: a quantitative study of the analgesic effects of morphine, meperidine, and brain stem stimulation in rats and cats. Pain. December 1977;4(2):161-74) Intragastrical administration by gavage: Compound and vehicle were given via a 18 G Gavage needle at 0.2 ml/30 g of the mouse body weight. Compounds: A CCR-2 antagonist having the formula: [drawing 1085] (CCR-2 Antagonist “A”) was tested in the formalin test and the mouse nerve injury model. A second CCR-2 antagonist: [drawing 1086] (CCR-2 Antagonist “B”) was tested in the formalin test only. Both compounds were diluted in 0.5% methylcellulose and were dosed p.o. at a volume of 0.2 ml per 30 g body-weight. For the formalin test, compounds were administered 60 min before the formalin injection. For the nerve injury model, Compound A was tested 4-5 days after surgery. A third CCR-2 antagonist having the formula: [drawing 1087] (CCR-2 Antagonist “C”) was tested in the rat nerve model, MCP-1 co-administration model, the carrageenan model and the CFA model. The compound was dissolved into ethanol/H2O=9/95 prior to testing.

With `CC(C)[C@]1(C(=O)N2CCc3ncc(C(F)(F)F)cc3C2)CC[C@@H](NC2CCOC[C@H]2C)C1` (some centres unmarked) [CCR-2 Antagonist C] the “efficacy in multiple dosing study (50% paw withdrawal threshold)” value ([1]; 3 mg/kg PO b.i.d. for 5 days) was “significant efficacy”, the “Efficacy: % MPE, day from which efficacy is significant” value ([1]; 3 mg/kg PO b.i.d., tested before and 1 hr after dosing each day for 5 days) was “Significant efficacy was observed starting at day 3” and the “effect on weight bearing” value ([2]; 3 mg/kg bid, day 2 and 3) was “significantly reversed weight bearing”. For the same compound, the “effect on weight bearing on the affected limb” value ([2]; 10 mg/kg, day 3) was “significantly reversed weight bearing”, the “anti-allodynic effect (50% paw withdrawal threshold) of co-injection with MCP-1” value ([3]; 20 μg/rat via intrathecal catheter with MCP-1 750 ng/rat, day 4, 7, 10 and 11) was “partial preemptive anti-allodynic effect” and the “effect of co-injection with MCP-1 on development of mechanical allodynia” value ([3]; intrathecal co-injection with MCP-1) was “inhibited and delayed the development of mechanical allodynia”.

In the case of `CO[C@H]1COCC[C@H]1NC1CC[C@@](C(=O)N2CCc3ncc(C(F)(F)F)cc3C2)(C(C)C)C1` (some centres unmarked) [CCR-2 Antagonist B], the “decrease of phase 2 of the formalin test” value ([4]; 10 mg/kg) was 20%, the “decrease of pain behavior in the formalin test” value ([4]; 30 mg/kg p.o.) was 30% and the “decrease of phase 2 of the formalin test” value ([4]; 30 mg/kg) was 30%.

With `CC(C)[C@]1(C(=O)N2CCc3ccc(C(F)(F)F)cc3C2)CCC(N[C@H]2CCOC[C@H]2C)C1` (some centres unmarked) [CCR-2 Antagonist A] the “effect in the formalin test versus vehicle” value ([4]; 1 mg/kg p.o.) was “No difference with the vehicle group”, the “decrease of pain behavior in the formalin test” value ([4]; 3 mg/kg p.o.) was 50% and the “effect on phase 2 times of the formalin test” value ([4]; 3 mg/kg p.o.) was “significantly decreased”. For the same compound, the “effect on phase 2 times of the formalin test” value ([4]; 30 mg/kg p.o.) was “significantly decreased” and the “effect on phase 1 of the formalin test” value ([4]; p.o., phase 1) was “no effect”.

Source: patent publication US20060205761A1, “Ccr-2 antagonists for treatment of neuropathic pain” (priority 2003, published 2006)
